Data published in US20250084056A1, “SUBSTITUTED OXOISOINDOLINYL PIPERIDINE-2,6-DIONE COMPOUNDS” (BRISTOL-MYERS SQUIBB COMPANY, priority 2023, published 2025).

Key:
Type in all cases: cell-based
Phospho-Rb (Ser807/811) = test: Phospho-Retinoblastoma (pRB) Cellular Assay; settings: NIH OVCAR3 cells, 24 hours; for IC50 / Emax: Homo sapiens, OVCAR-3; for IC50: concentration giving 50% response; for Emax: read-out: pRB Ymax
In short: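 Phospho-Rb (Ser807/811) kit read-out on EnVision after lysis (≥4 h, room temperature, dark) of OVCAR3 cells exposed to compound dilutions for 24 h. IC50 and maximum response Ymax are relative to a 10 μM reference compound defining 100%.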

GSPT1 = GSPT1 (Homo sapiens, UniProt P15170+Q96SW2); test: GSPT1 Cellular Degradation Assay (DF15-GSPT1-ePL); parameters: expressed in transfected cells; settings: DF15-GSPT1-ePL cells, 20 hours
In short: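 DC50 and Dmax were derived from chemiluminescence, with 75% response set by the reference compound at […]. Readout was ePL enzyme-fragment complementation in a DF15 line expressing chimeric GSPT1. Cells were exposed to compound for 20 h at 37 °C in RPMI 1640 with 10% FBS, cooled 30 min, then lysed with substrate for 60 min.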

Cyclin E1 = Cyclin E1 (Homo sapiens, UniProt P24864+Q96SW2); test: Cyclin E1 Cellular Degradation Assay (MSD); parameters: endogenous in cells; host or cells: OVCAR3; settings: for Ratio of GSPT1 DC50/Cyclin E1 DC50: selectivity for degradation of Cyclin E1 over GSPT1
In short: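 Cyclin E1 remaining after 24 h compound exposure of OVCAR3 cells was quantified in lysates by electrochemiluminescent MSD sandwich assay. DC50 (50% response concentration) and Dmax (maximum response) were calculated, with 110% response set by a reference compound at […].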

[1] = maximum response, reference compound at 10 μM = 100%
[2] = Cyclin E1 cellular degradation, maximum degradation

Sequence of Cyclin E1 (P24864 whole entry): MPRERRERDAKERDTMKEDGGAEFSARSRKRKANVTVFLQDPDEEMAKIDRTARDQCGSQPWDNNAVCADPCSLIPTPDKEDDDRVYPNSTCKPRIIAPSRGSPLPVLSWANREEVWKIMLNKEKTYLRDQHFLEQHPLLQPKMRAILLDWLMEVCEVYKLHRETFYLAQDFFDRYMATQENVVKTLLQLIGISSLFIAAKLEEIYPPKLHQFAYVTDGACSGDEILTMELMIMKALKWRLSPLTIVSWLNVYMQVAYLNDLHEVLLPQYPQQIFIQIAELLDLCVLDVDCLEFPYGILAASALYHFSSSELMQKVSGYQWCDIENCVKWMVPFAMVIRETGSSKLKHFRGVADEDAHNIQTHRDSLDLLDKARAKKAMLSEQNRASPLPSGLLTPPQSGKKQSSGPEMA
Sequence of Cyclin E1 (Q96SW2 whole entry): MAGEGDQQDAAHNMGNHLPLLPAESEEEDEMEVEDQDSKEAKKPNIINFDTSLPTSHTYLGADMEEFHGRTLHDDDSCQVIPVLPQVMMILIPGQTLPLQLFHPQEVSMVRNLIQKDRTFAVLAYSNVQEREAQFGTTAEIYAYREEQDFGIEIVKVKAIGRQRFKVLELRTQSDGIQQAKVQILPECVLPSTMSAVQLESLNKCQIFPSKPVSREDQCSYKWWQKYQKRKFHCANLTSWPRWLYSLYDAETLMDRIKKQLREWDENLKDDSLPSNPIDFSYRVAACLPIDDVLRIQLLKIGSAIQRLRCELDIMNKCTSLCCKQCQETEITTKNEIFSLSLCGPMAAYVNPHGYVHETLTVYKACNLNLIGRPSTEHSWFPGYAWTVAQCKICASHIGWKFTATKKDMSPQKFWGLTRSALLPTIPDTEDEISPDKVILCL
Sequence of Cyclin E1 (Q16531 whole entry partner): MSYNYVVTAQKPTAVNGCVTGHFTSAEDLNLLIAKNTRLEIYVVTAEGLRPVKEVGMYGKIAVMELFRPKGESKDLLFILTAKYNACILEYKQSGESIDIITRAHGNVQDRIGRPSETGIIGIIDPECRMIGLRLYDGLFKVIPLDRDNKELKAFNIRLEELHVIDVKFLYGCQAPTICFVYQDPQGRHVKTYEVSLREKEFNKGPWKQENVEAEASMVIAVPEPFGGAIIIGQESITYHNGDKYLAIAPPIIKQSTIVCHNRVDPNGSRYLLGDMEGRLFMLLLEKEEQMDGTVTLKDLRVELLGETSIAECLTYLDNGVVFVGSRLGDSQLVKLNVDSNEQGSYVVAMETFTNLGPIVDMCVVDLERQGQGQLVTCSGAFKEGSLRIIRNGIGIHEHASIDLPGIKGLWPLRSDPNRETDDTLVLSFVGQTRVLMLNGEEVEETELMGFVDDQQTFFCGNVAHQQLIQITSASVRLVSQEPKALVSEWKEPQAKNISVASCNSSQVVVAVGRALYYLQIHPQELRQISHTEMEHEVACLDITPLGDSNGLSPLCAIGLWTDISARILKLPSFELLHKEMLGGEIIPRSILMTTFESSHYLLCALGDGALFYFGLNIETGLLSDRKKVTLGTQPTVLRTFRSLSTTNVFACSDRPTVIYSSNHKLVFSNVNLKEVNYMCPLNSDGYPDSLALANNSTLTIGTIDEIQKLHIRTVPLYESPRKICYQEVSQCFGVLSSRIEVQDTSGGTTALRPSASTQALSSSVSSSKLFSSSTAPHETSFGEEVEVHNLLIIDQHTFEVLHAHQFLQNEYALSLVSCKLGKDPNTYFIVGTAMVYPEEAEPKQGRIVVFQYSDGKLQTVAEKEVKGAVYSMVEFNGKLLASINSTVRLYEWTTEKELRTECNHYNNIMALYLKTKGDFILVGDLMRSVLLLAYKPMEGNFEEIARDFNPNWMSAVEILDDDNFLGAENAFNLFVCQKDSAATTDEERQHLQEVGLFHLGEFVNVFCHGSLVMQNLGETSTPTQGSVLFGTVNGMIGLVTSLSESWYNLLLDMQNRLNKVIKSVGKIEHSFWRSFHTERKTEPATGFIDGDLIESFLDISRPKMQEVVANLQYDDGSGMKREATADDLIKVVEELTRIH
Sequence of GSPT1 (P15170 whole entry, the tested form may be a part): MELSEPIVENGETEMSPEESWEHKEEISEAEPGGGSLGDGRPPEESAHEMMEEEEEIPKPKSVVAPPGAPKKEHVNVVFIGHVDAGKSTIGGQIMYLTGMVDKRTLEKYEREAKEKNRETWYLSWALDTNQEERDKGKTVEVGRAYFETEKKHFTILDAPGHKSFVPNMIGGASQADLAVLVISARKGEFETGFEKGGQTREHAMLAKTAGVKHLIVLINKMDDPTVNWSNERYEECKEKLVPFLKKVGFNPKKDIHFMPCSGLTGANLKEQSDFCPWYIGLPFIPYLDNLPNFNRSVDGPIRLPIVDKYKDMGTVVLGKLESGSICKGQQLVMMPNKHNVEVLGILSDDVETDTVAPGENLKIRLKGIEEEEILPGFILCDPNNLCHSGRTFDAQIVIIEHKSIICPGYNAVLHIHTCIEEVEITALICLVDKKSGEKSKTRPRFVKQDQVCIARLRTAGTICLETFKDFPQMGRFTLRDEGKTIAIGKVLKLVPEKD
Sequence of GSPT1 (Q96SW2 whole entry, the tested form may be a part): as the sequence (Q96SW2 whole entry) above
Sequence of GSPT1 (Q16531 whole entry partner, the tested form may be a part): as the sequence (Q16531 whole entry partner) above

Row | Structure (SMILES) | IC50 (Phospho-Rb (Ser807/811)) [µM] | Emax (Phospho-Rb (Ser807/811); [1]) [%] | DC50 (GSPT1) [µM] | Dmax (GSPT1) [%] | DC50 (Cyclin E1; Cyclin E1 cellular degradation) [µM] | Dmax (Cyclin E1; [2]) [%] | Ratio of GSPT1 DC50/Cyclin E1 DC50 (Cyclin E1) | pRB Ymax (Phospho-Rb (Ser807/811); [1]) [%] | GSPT1 Dmax (GSPT1) [%] | Cyclin E1 Dmax (Cyclin E1; [2]) [%]
1 | COc1c(COC(=O)Nc2ccc(Oc3cc(F)ccc3Cl)cc2)ccc2c1C(=O)N(C1CCC(=O)NC1=O)C2 (centres unmarked) [Example 106, [2-(2,6-dioxopiperidin-3-yl)-4-methoxy-3-oxo-2,3-dihydro-1H-isoindol-5-yl]methyl N-[4-(2-chloro-5-fluorophenoxy)phenyl]carbamate] | 0.178 | 113 | > 14 | 47 | 0.057 | 106 | >245 | – | – | –
2 | COc1c(COC(=O)Nc2ccc(Oc3cc(F)cc(F)c3)cc2F)ccc2c1C(=O)N(C1CCC(=O)NC1=O)C2 (centres unmarked) [Example 24, [2-(2,6-dioxopiperidin-3-yl)-4-methoxy-3-oxo-2,3-dihydro-1H-isoindol-5-yl]methyl N-[4-(3,5-difluorophenoxy)-2-fluorophenyl]carbamate] | 0.229 | 105 | > 14 | 10 | 0.039 | 107 | >358 | – | – | –
3 | COc1c(COC(=O)Nc2ccc(Oc3ccc(F)c(C)c3)cc2F)ccc2c1C(=O)N(C1CCC(=O)NC1=O)C2 (centres unmarked) [Example 99, [2-(2,6-dioxopiperidin-3-yl)-4-methoxy-3-oxo-2,3-dihydro-1H-isoindol-5-yl]methyl N-[2-fluoro-4-(4-fluoro-3-methylphenoxy)phenyl]carbamate] | 0.221 | 114 | > 14 | 22 | 0.118 | 109 | >118 | – | – | –
4 | O=C1CCC(N2Cc3ccc(COC(=O)Nc4ccc(Oc5ccccc5F)cc4)c(Oc4ccccc4)c3C2=O)C(=O)N1 (centres unmarked) [Example 65, [2-(2,6-dioxopiperidin-3-yl)-3-oxo-4-phenoxy-2,3-dihydro-1H-isoindol-5-yl]methyl N-[4-(2-fluorophenoxy)phenyl]carbamate] | 0.059 | 127 | > 14 | 0 | 0.164 | 101 | >85 | – | – | –
5 | [2H]C([2H])([2H])c1ccccc1Oc1ccc(NC(=O)OCc2ccc3c(c2OC)C(=O)N(C2CCC(=O)NC2=O)C3)cc1 (centres unmarked) [Example 92, [2-(2,6-dioxopiperidin-3-yl)-4-methoxy-3-oxo-2,3-dihydro-1H-isoindol-5-yl]methyl N-{4-[2-(^2H3)methylphenoxy]phenyl}carbamate] | – | – | – | – | – | – | >82 | 112 | 23 | 114
6 | COc1c(COC(=O)Nc2ccc(Oc3cccc(F)c3)cc2)ccc2c1C(=O)N(C1CCC(=O)NC1=O)C2 (centres unmarked) [Example 4, [2-(2,6-dioxopiperidin-3-yl)-4-methoxy-3-oxo-2,3-dihydro-1H-isoindol-5-yl]methyl N-[4-(3-fluorophenoxy)phenyl]carbamate] | 0.089 | 109 | > 14 | 35 | 0.039 | 108 | >355 | – | – | –
7 | COc1c(COC(=O)Nc2ccc(Oc3cc(F)c(F)c(F)c3)cc2C)ccc2c1C(=O)N(C1CCC(=O)NC1=O)C2 (centres unmarked) [Example 40, [2-(2,6-dioxopiperidin-3-yl)-4-methoxy-3-oxo-2,3-dihydro-1H-isoindol-5-yl]methyl N-[2-methyl-4-(3,4,5-trifluorophenoxy)phenyl]carbamate] | 0.128 | 110 | > 14 | 9 | 0.041 | 108 | >339 | – | – | –
8 | COc1cc(Oc2ccccc2)ccc1NC(=O)OCc1ccc2c(c1OC)C(=O)N(C1CCC(=O)NC1=O)C2 (centres unmarked) [Example 93, [2-(2,6-dioxopiperidin-3-yl)-4-methoxy-3-oxo-2,3-dihydro-1H-isoindol-5-yl]methyl N-(2-methoxy-4-phenoxyphenyl)carbamate] | 0.159 | 111 | > 14 | 5 | 0.338 | 103 | >41 | – | – | –
